Entries after “also recorded” stand apart in the source; their conditions may differ.
Key:
[1] = Biodistribution of PET reporter probes in mice (microPET/CT); assay type: in vivo, C57/BL6 mice
Procedure: To identify candidate PRPs, eight nucleoside analogs (FIG. 7A) were synthesized that were amenable to ^18F labeling (the first criterion for PRPs). To identify PRP candidates with rapid clearance from normal tissues and low overall background (second criterion for PRGs), biodistribution studies in mice were performed. It was observed that natural (D) nucleosides had higher background than non-natural (L) nucleoside analogs. […] The next step was to identify a human nucleoside kinase that phosphorylates L-[^18F]FMAU and L-[^18F]FEAU, and can be converted into a new PRG that matches four criteria:
Initially, a group of nucleoside analogs amenable to fluorine-18 labeling were identified. These PET tracers, 5 of which were novel, were then screened to determine their biodistribution in C57/BL6 mice (n=3 for each PET tracer) through dynamic microPET scans. […] Rational design is utilized to introduce mutations into human nucleoside kinase thymidine kinase 2 (TK2) to improve the affinity of the kinase for the top candidate probe. The sensitivity and specificity of the novel PET reporter probe/gene pair was then determined in vitro and in vivo using a murine cancer model.
Animal studies were approved and carried out according to specific guidelines. C57/BL6 mice were injected with the indicated probe and underwent micro-PET/CT analyses at 1- and 3-h post probe injection (Inveon, Siemens Medical Solutions USA Inc.; microCAT; Imtek Inc.). For tumor imaging studies, SCID mice were injected subcutaneously on day −7 in the right and left flanks with 1×10^6 L1210-PRG-expressing cells in 50% v/v phosphate-buffered saline and 50% v/v Matrigel™ (BD Biosciences). For imaging experiments, mice were kept warm and under gas anesthesia (2% v/v isoflurane) and were injected intravenously with 200 μCi of ^18F-labeled probes. A 3-h interval was allowed between probe administration and microPET/CT scanning Static microPET images were acquired for 600 s. Image data were evaluated in three-dimensional histograms and reconstructed with a zoom factor of 2.1 using three-dimensional ordered set expectation maximization (OSEM) with 2 iterations followed by MAP (maximum a posteriori) reconstruction with 18 iterations (beta=0.1). Images were analyzed using OsiriX Imaging Software Version 3.8.

[2] = tested on: TK2-N93D/L109F-expressing L1210 cells; experiment: L-18F-FMAU uptake assay, transduced L1210 cells (TK2-N93D/L109F); assay type: cell-based, murine
Procedure: (§1) The L1210 cell line (see, e.g. Jordheim, L. P., et al. (2004) Clin. Cancer Res. 10, 5614-5621) was a gift. Cells were cultured at 5% v/v CO2 and 37° C. in RPMI supplemented with 5% v/v FCS. Murine stem cell virus (pMSCV)-based helper-free retroviruses encoding the TK2 mutants (or sr39tk), an internal ribosomal entry site, and the yellow fluorescent protein (YFP) were produced by transient co-transfection of the amphotrophic retrovirus packaging cell line Phoenix (American Type Culture Collection, SD 3443) (see, e.g. Hawley, R. G., et al. (1994) Gene. Ther. 1, 136-138). L1210 cells underwent spinfection with the pMSCV-TK2 mutants-internal ribosomal entry site-YFP retrovirus with 2 μg/ml Polybrene (1000×g, 120 min, 37° C.). L1210 cells expressing various PRGs, (L1210-PRG) were FACS-sorted to ensure that each population had equivalent levels of PRG expression.
(§2) L1210 cells transduced with the indicated PET reporter genes (L1210-PRG) were seeded at a density of 500,000 cells/well in 24-well plates. 5 μCi of L-^18F-FMAU were added to the L1210-PRG cells simultaneously with the indicated amounts of D-thymidine (D-dT) at a final volume of 1 ml/well. After 1 h at 37° C., cells were harvested and washed four times with ice-cold PBS. Radioactivity was measured using a gamma counter.

[3] = Human whole-body PET/CT biodistribution of PET reporter probes; assay type: in vivo; conditions: for accumulation in myocardium / heart and liver: healthy volunteers; for intestinal / GI tract activity compared with 18F-FHBG / tracer background within abdomen and pelvis: human; for tracer background within abdomen and pelvis: whole-body PET/CT
Text: All studies involving human volunteers were approved. A healthy person and a healthy volunteer were recruited for the L-^18F-FMAU biodistribution study. Each volunteer received a bolus intravenous injection of ˜56 MBq (1.5 mCi) sterile L-^18F-FMAU and had four consecutive whole-body (starting from just above the head to above the knees, 6 bed positions, 5-min scan at each bed position) PET scans (Biograph 64, Siemens), with the first scan starting shortly after intravenous injection of L-^18F-FMAU. A low dose CT scan was also obtained for attenuation correction. Volunteers urinated after all scans had been performed. The region of interest analysis was performed to measure mean standard uptake values of L-^18F-FMAU in major organs/tissues. To illustrate the biodistribution of ^18F-FHBG, unpublished scan from a previous study (see, e.g. Yaghoubi, S. S., et al. (2009) Nat. Clin. Pract. Oncol. 6, 53-58) was used.

[4] = tested on: TK2-L109F-expressing L1210 cells; experiment: L-18F-FMAU uptake assay, transduced L1210 cells (TK2-L109F); assay type: cell-based, murine; conditions: in the presence of 5 μM D-dT
Procedure: as §1, §2

[5] = tested on: Baf-3 cells; experiment: Test of mutant htk2 reporter genes in Baf-3 cells; assay type: cell-based
Text: The sensitivity of the described mutant htk2 imaging reporter genes can be evaluated through cell culture assays and PET imaging in mouse tumor models. […] Further tests regarding the effect of expressing these reporter genes on various cells can be used to determine other potential targets. […] Several enhanced htk2 mutant reporter genes have been designed and tested. Though the examples herein describe different probes and investigate the L probes mainly in mice, other mammals and in particular, humans are also within the scope of the invention. Silico models can be used to derive additional enhanced mutants from human htk2.

accumulation in the liver ([1]; 1-h post injection (data not shown)): accumulates in the liver
accumulation in the liver ([1]; 3-h time point): neither probe showed any accumulation
accumulation in the gallbladder ([1]; 3 h after administration): 1.68±0.46 % injected dose/g
retention in the thoracic cavity ([1]; 3 h after administration): very low retention
signals in the GI tract ([1]; 3 h after administration): only detected in the lower GI tract
overall background (biodistribution) ([1]; candidate 18F nucleoside analog probes in mice, FIG. 7B): lowest overall background
non-specific GI signals ([1]; increasing uptake time from 1 to 3 hours): almost completely eliminated
GI activity compared with 18F-FHBG-injected mice ([1]; mice): significantly less intense
liver activity compared with 18F-FHBG ([3]; at 2 h): more intense activity
accumulation in myocardium / heart and liver ([3]; listed as L-[^18F]FMAU): accumulates in these tissues
intestinal / GI tract activity compared with 18F-FHBG [3]: lower than that of ^18F-FHBG
intestinal / GI tract activity compared with 18F-FHBG ([3]; listed as 18F-L-FMAU): lower intestinal background
tracer background within abdomen and pelvis ([3]; listed as L-[^18F]-FMAU): very low background in abdominal cavity
tracer background within abdomen and pelvis ([3]; listed as L-[^18F]FMAU): very low tracer background
Structure (SMILES): Cc1cn([C@H]2O[C@@H](CO)[C@H](O)[C@H]2[18F])c(=O)[nH]c1=O [L-^18F-FMAU, 2′-deoxy-2′-^18F-5-methyl-1-β-L-arabinofuranosyluracil]
in vitro uptake of 18F-L-FMAU compared to TK2-N0 ([2]; TK2-N5 (TK2-N93D/L109F)): two-fold increase
inhibition of uptake by thymidine compared to TK2-N0 ([2]; TK2-N5 (TK2-N93D/L109F)): less resistance to inhibition by thymidine
L-18F-FMAU uptake, higher than that of TK2-L109F cells ([2]; absence of D-dT): ~4 times
L-18F-FMAU uptake, higher than that of TK2-N93D cells ([2]; absence of D-dT): 1.5 times
decrease of L-18F-FMAU uptake ([2]; in the presence of 5 μM D-dT): 47%
tissues with relatively high signals ([3]; 2 h post-administration): relatively high signals were observed in liver, kidneys, gall bladder, bladder, and the GI tract
uptake pattern in healthy volunteer ([3]; first in human study, FIG. 20): mainly in its clearance routes, liver and bladder, with relatively low accumulation in intestines and some accumulation in the heart
accumulation in myocardium / heart and liver [3]: accumulation was also observed in the myocardium; also recorded: accumulates in the myocardium and liver
L-18F-FMAU uptake as percentage of the corresponding uptake for TK2-N93D/L109F [4]: 31%
decrease of L-18F-FMAU uptake [4]: 37%
test of reporter system with probe [5]: successfully tested

Reference: US20140248212A1, “NON-IMMUNOGENIC POSITRON EMISSION TOMOGRAPHY REPORTER GENE SYSTEMS” (THE REGENTS OF THE UNIVERSITY OF CALIFORNIA, priority 2011, published 2014)
